The results in this text go back to patent publication US20060194860A1, “Pharmaceutical compositions containing aryl or heteroaryl azolylcarbinol compounds” (GRUENENTHAL GMBH, priority 2003, published 2006).

A word on the Ki: it is a measure of affinity in units of concentration, obtained from inhibition or displacement.

Structures are written as SMILES.

In the test the target is T1, 5-HT reuptake (Homo sapiens, UniProt P31645).
T1 construct: in a system with neurological tissue under physiological conditions; from tissue
The experiment in a line: Functional measurement of the 5-HT uptake / inhibition of serotonin uptake (tritium-marked 5-HT, neurological tissue). The class given is biochemical. To be noted: uptake of tritium-marked 5-HT in neurological tissue under physiological conditions; three independent tests. An excerpt: Functional Measurement of the 5-HT-Uptake or the Inhibition of Serotonin Uptake
The uptake of tritium-marked 5-HT (serotonin) as a function of the concentration of the added substance 5-{α-[2-(methylamino)ethoxy]benzyl}-1-methyl-1H-pyrazole in a system with neurological tissue under physiological conditions.

T1 sequence (P31645 whole entry): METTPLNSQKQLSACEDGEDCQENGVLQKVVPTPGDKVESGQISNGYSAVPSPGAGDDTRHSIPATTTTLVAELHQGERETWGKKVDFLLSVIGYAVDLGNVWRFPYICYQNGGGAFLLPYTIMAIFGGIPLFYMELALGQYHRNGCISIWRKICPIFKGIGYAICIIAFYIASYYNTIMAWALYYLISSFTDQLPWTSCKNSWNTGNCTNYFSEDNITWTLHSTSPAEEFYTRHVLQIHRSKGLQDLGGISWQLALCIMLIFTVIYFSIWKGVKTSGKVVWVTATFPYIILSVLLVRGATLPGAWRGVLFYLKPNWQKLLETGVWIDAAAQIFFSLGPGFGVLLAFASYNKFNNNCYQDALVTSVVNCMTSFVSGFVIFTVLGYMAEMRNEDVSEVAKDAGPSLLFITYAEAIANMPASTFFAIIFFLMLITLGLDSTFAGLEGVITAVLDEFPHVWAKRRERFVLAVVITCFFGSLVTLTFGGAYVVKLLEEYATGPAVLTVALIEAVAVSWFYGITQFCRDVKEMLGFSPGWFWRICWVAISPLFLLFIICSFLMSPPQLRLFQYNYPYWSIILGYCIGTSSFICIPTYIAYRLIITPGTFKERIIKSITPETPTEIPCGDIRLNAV

Compound `CNCCOC(c1ccccc1)c1ccnn1C` (stereo not drawn) [5-{α-[2-(methylamino)ethoxy]benzyl}-1-methyl-1H-pyrazole] came in with a Ki of 530 ± 100 nM.
